In patent US20170112714A1, “METHOD FOR ALLEVIATING OR TREATING ANAPHYLAXIS” (Korea Bio Medical Science Institute, priority 2015, published 2017):

Legend:
Assay type in all cases: in vivo
ER-β mRNA = ER-β mRNA levels in brain by quantitative real-time PCR; conditions: ketotifen in compound 48/80 administered mice, p<0.05
HIF-1α = HIF-1α protein levels in brain by Western blotting; conditions: oral ketotifen in compound 48/80 mice, p<0.05; FIG. 3 (protein and mRNA)
Experimental: (§1) Mice were given an intraperitoneal (i.p.) injection of compound 48/80 (6.5 mg/kg). The period used to observe mortality was based on the results of a pretest during which mice died within 30 min of administration. […] Mortality was monitored for 40 min post-injection. […] Three independent experiments were performed (n=15/group).
Western blot analysis was performed on brain tissue extracts, as previously described in (Semenza GL: Hypoxia-inducible factor 1: oxygen homeostasis and disease pathophysiology. Trends Mol Med 2001; 7:345-350).

mice = assay: Compound 48/80-induced systemic anaphylaxis, mortality; conditions: ketotifen orally 1 mg/kg 1 h before compound 48/80 (6.5 mg/kg i.p.); vs compound 48/80 alone, p<0.01
Experimental: The original stock of male ICR (4 weeks old) was purchased from the Dae-Han Experimental Animal Center (Eumsung, Chungbuk, Republic of Korea). Animal care and experimental procedures used were approved by the Animal Care Committee of Kyung Hee University [KHUASP (SE)-12-019].
as §1
Jajinmori-jangdan and Hwimori-jangdan (rhythmic cycles) of Buk music were played by Kyung-Ja Ko. The playing conditions were as follows: Jajinmori-jangdan rhythmic cycle of twelve beats, […] (12/8 metre, ? =96 to 144), in an allegro moderated tempo and Hwimori-jangdan rhythmic cycle of 4 beats, 2+2 (4/4 metre, ? =208 to 230), in a presto tempo. The sound of a Buk is a match for the frequency of a baritone voice (139.9 to 355.2 Hz). […] Mice were exposed to Buk music or white noise for 5 min. All experiments were carried out in an environment free of other sounds. Buk music was recorded and copied using a MP3 player to ensure precisely the same music was played for mice in all treatment groups.

TNF-α = TNF-α protein levels in brain by ELISA; conditions: ketotifen in compound 48/80 mice
Experimental: as §1
Cytokines levels in serum and brain were analyzed by ELISA, as described previously. Cytokine levels in brain were divided according to the total protein levels, which were estimated using a BCA protein assay kit (Pierce, Rockford, Ill., USA).

VEGF mRNA = VEGF mRNA levels in brain by quantitative real-time PCR; conditions: ketotifen in compound 48/80 mice, p<0.05
Experimental: as §1
Quantitative real-time PCR was performed using SYBR Green master mix and mRNA levels were analyzed using an ABI StepOne real time PCR System (Applied Biosystems, Foster City, Calif., USA). Primer sequences for the reference gene GAPDH and genes of interest were as follows: GAPDH (5′ […] 3′, SEQ ID NO.1; 5′ […] 3′, SEQ ID NO.2); HIF-1α (5′ […] 3′, SEQ ID NO.3; 5′ […] 3′, SEQ ID NO.4); VEGF (5′ […] 3′, SEQ ID NO.5; 5′ […] 3′, SEQ ID NO.6). Typical profile times used were as follows; initial step 95° C. for 10 min followed by a second step at 95° C. for 15 s and 60° C. for 30 s for 40 cycles. Levels of target mRNAs were normalized versus GAPDH. Data were analyzed using the ΔΔCT method.

## CN1CCC(=C2c3ccccc3CC(=O)c3sccc32)CC1 [ketotifen]
ER-β mRNA
  ER-β mRNA levels in brain: significantly increased
HIF-1α
  HIF-1α levels in brain: significantly reduced
mice
  mortality induced by compound 48/80: reduced mortality
TNF-α
  TNF-α protein levels in brain: significantly reduced
VEGF mRNA
  brain VEGF mRNA levels: significantly reduced
